Source: ChEMBL document CHEMBL1125328, “Design and synthesis of a C7 mimetic for the predicted gamma-turn conformation found in several constrained RGD antagonists” (J Med Chem, 1992)
Bridge positions count the residues as written; N and C are the ends. Square brackets hold non-standard residues; d marks the D form. Peptide text beside a SMILES is read from it. NMeR = CN[C@@H](CCCNC(=N)N)C(=O)O

Molecular target: Integrin alpha-IIb/beta-3 (Homo sapiens, UniProt P05106+P08514)
Experiment: Inhibition of [3H]-107260 binding to purified GPIIb/IIIa of human platelets

Sequence of Integrin alpha-IIb/beta-3 (P05106 27-788 limits assumed): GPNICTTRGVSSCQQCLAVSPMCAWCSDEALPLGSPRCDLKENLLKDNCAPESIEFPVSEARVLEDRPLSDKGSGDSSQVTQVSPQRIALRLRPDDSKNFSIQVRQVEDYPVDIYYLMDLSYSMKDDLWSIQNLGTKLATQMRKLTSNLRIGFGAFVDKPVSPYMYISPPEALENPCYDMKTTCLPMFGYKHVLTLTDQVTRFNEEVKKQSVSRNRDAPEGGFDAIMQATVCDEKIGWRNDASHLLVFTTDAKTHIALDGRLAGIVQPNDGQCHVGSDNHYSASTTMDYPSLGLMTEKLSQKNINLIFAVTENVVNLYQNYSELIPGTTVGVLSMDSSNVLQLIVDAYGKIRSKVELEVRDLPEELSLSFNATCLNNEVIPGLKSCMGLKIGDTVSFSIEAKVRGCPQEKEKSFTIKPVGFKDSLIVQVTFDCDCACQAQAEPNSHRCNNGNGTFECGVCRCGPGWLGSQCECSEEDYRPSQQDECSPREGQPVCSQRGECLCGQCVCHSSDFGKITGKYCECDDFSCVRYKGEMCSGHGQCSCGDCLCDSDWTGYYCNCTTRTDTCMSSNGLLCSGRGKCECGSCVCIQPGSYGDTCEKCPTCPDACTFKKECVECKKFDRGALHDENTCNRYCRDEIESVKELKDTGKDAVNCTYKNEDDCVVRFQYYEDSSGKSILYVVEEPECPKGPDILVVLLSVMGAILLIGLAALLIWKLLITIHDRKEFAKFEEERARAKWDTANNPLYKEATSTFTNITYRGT
Sequence of Integrin alpha-IIb/beta-3 (P08514 32-887 limits assumed): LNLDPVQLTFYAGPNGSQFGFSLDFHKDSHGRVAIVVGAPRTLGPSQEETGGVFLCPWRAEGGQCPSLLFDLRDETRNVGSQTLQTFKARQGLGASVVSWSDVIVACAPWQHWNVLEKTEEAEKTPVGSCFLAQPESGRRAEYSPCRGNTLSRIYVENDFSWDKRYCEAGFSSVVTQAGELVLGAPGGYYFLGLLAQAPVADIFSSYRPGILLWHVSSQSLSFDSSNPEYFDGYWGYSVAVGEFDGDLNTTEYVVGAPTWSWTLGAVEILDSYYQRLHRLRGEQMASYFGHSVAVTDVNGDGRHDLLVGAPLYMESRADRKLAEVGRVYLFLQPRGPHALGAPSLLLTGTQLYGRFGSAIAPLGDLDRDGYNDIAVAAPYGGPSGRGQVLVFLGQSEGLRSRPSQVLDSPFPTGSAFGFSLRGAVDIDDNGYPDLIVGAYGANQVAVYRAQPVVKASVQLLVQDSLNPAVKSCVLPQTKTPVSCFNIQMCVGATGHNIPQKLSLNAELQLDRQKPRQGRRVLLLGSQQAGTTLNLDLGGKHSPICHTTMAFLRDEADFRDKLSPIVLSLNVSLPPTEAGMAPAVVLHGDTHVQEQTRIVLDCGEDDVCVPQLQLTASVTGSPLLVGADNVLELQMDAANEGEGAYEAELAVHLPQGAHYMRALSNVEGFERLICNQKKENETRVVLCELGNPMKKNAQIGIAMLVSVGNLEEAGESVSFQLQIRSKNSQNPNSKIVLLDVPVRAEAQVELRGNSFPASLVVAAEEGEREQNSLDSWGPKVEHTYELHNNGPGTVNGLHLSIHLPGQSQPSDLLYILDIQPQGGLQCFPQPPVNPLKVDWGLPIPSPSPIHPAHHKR
Sequence of Integrin alpha-IIb/beta-3 (P08514 891-1039 limits assumed): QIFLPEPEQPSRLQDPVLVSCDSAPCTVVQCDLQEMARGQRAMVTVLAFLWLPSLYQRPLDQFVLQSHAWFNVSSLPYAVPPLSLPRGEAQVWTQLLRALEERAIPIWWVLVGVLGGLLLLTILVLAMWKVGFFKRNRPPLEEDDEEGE

Row | Ki | SMILES
1 | 271 nM | CC(=O)N(C)C(CCCNC(=N)N)C(=O)NCC1=CC(CC(=O)O)C(=O)N(c2ccccc2)CC1 (configuration not stated)
2 | 175 nM | CC(=O)N[C@H]1CSSC[C@@H](C(N)=O)NC(=O)[C@H](CC(=O)O)NC(=O)CNC(=O)[C@H](CCCN=C(N)N)N(C)C1=O (Ac-C[NMeR]GDC-NH2; disulfide 1-5)
